In US10577362B2, “Substituted 2, 4-diamino-quinoline derivatives for use in the treatment of proliferative diseases” (GENOSCIENCE PHARMA, priority 2016, dated 2020):

How the values were obtained:
[1] = test system: PANC-1 (prancreatic carcinoma) cell line; test: CellTiter-Glo luminescent cell viability assay, PANC-1; format: cell-based; conditions: Homo sapiens; for viability at 4 µM: PANC-1, 4 μM; for viability at 4 µM / viability at 10 µM: 72 h, % of signal of diluent-treated cultures; for viability at 10 µM: PANC-1, 10 μM; for EC50: PANC-1 cell line, 72 h incubation, CellTiter-Glo, read-out: EC50 (growth inhibition assay of PANC-1 cell line)
How it was run: (§1)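 In a 72 h viability assay, compound-treated cells were compared against matched H2O or DMSO diluent controls by luminescence, points in at least duplicate.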

[2] = test system: 786-O (renal adenocarcinoma) cell line; test: CellTiter-Glo luminescent cell viability assay, 786-O; format: cell-based, human; conditions: Homo sapiens, 786-0; for viability at 4 µM / viability at 10 µM: 786-O, 72 h; for viability at 4 µM: compound at 4 μM; for viability at 10 µM: compound at 10 μM; for EC50: 786-O cell line, 72 h incubation, CellTiter-Glo, read-out: EC50, growth inhibition of 786-O
How it was run: (§2)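 Cells were cultured at 37 °C, 5% CO2 with 10% FBS; adherent lines were plated overnight, suspension MOLM-14 plated 1 h before dosing. Compounds in H2O or DMSO were added at various concentrations for 72 h, and viability was read by luminescence. EC50 is the dose reducing signal to 50% of diluent control.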

[3] = test system: HCT-116 (colorectal carcinoma) cell line; test: CellTiter-Glo luminescent cell viability assay, HCT-116; format: cell-based, human; conditions: Homo sapiens; for viability at 4 µM: HCT-116, compound at 4 μM; for viability at 4 µM / viability at 10 µM: 72 h; for viability at 10 µM: HCT-116, compound at 10 μM; for EC50: HCT-116 cell line, 72 h incubation, CellTiter-Glo, read-out: EC50, growth inhibition of HCT-116
How it was run: as §2

[4] = test system: MOLM-14 (acute myeloid leukemia) cell line; test: CellTiter-Glo luminescent cell viability assay, MOLM-14; format: cell-based, human; conditions: Homo sapiens; for viability at 4 µM: MOLM-14, compound at 4 μM; for viability at 4 µM / viability at 10 µM: 72 h; for viability at 10 µM: MOLM-14, compound at 10 μM; for EC50: MOLM-14 cell line, 72 h incubation, CellTiter-Glo, read-out: EC50, growth inhibition of MOLM-14
How it was run: as §1

[5] = test system: HepG2 (hepatocellular carcinoma) cell line; test: CellTiter-Glo luminescent cell viability assay, HepG2; format: cell-based, human; conditions: Homo sapiens; for viability at 4 µM / viability at 10 µM: HepG2, HepG, 72 h; for viability at 4 µM: compound at 4 μM; for viability at 10 µM: compound at 10 μM; for EC50: HepG2 cell line, 72 h incubation, CellTiter-Glo, read-out: EC50, growth inhibition of HepG2
How it was run: as §1

[6] = test system: Huh7 (hepatocellular carcinoma) cell line; test: CellTiter-Glo luminescent cell viability assay, Huh7; format: cell-based, human; conditions: Homo sapiens, Huh-7; for viability at 4 µM: Huh7, compound at 4 μM; for viability at 4 µM / viability at 10 µM: 72 h; for viability at 10 µM: Huh7, compound at 10 μM; for EC50: Huh7 cell line, 72 h incubation, CellTiter-Glo, read-out: EC50, growth inhibition of Huh7
How it was run: as §1

[7] = test system: A375 (malignant melanoma) cell line; test: CellTiter-Glo luminescent cell viability assay, A375; format: cell-based, human; conditions: Homo sapiens, A-375; for viability at 4 µM: A375, compound at 4 μM; for viability at 4 µM / viability at 10 µM: 72 h; for viability at 10 µM: A375, compound at 10 μM; for EC50: A375 cell line, 72 h incubation, CellTiter-Glo, read-out: EC50, growth inhibition of A375
How it was run: as §2

Row | EC50 [1] [µM] | EC50 [2] [µM] | EC50 [3] [µM] | EC50 [4] [µM] | EC50 [5] [µM] | EC50 [6] [µM] | SMILES | viability at 4 µM [1] [%] | viability at 10 µM [1] [%] | viability at 4 µM [2] [%] | viability at 10 µM [2] [%] | viability at 4 µM [3] [%] | viability at 10 µM [3] [%] | viability at 4 µM [4] [%] | viability at 10 µM [4] [%] | viability at 4 µM [5] [%] | viability at 10 µM [5] [%] | viability at 4 µM [6] [%] | viability at 10 µM [6] [%] | viability at 4 µM [7] [%] | viability at 10 µM [7] [%] | also measured
1 |  |  |  |  |  |  | Cn1cc(Nc2nc3ccccc3c(N3CCC(NC(C)(C)C)CC3)c2C#N)cn1 [Compound 3268CN, 2-[(1-methyl-1H-pyrazol-4-yl)amino]-3-cyano-4-[4-(tert-butylamino)piperidin-1-yl]quinoline] | 95.8 | 43.6 | 109 | 80.1 | 73.7 | 22.6 | 91 | 77.6 | 68.6 | 56 | 94 | 64.8 | 61.8 | 11.3 | 
2 |  |  |  |  |  |  | Cc1nnc(Nc2nc3ccccc3c(N3CCC(NC(C)(C)C)CC3)c2C#N)o1 [Compound 3272CN, 2-[(5-methyl-1,3,4-oxadiazol-2-yl)amino]-3-cyano-4-[4-(tert-butylamino)piperidin-1-yl]quinoline] | 84.7 | 65.3 | 79 | 48.9 | 13.9 | 5 | 82.3 | 20.7 | 97.7 | 61.2 | 92.6 | 67.2 | 62.3 | 21.2 | 
3 |  |  |  |  |  |  | Cc1nc(Nc2nc3ccccc3c(N3CCC(NC(C)(C)C)CC3)c2C#N)n(C)n1 [Compound 3274CN, 2-[(1,3-dimethyl-1H-1,2,4-triazol-5-yl)amino]-3-cyano-4-[4-(tert-butylamino)piperidin-1-yl]quinoline] | 96.7 | 89.9 | 106 | 83.4 | 73.3 | 49.5 | 91.3 | 78.2 | 63.4 | 55.2 | 96.2 | 75 | 84.7 | 69.2 | 
4 |  |  |  |  |  |  | CC(C)(C)NC1CCN(c2c(C#N)c(Nc3ccccn3)nc3ccccc23)CC1 [Compound 3278CN, 2-(pyridin-2-ylamino)-3-cyano-4-[4-(tert-butylamino)piperidin-1-yl]quinoline] | 102 | 84.2 | 90.2 | 68.2 | 85.7 | 7.2 | 96.1 | 88.6 | 87.1 | 53.2 | 95 | 51 | 90.6 | 45.2 | 
5 |  |  |  |  |  |  | CC(C)(C)NC1CCN(c2c(C#N)c(Nc3ccncn3)nc3ccccc23)CC1 [Compound 3282CN, 2-(pyrimidin-4-ylamino)-3-cyano-4-[4-(tert-butylamino)piperidin-1-yl]quinoline] | 102 | 77.3 | 102 | 76.9 | 73.7 | 39.8 | 93.3 | 63.5 | 58.9 | 40.3 | 97.9 | 75.4 | 88.6 | 64.1 | 
6 |  |  |  |  |  |  | CC(C)(C)NC1CCN(c2c(C#N)c(Nc3cnccn3)nc3ccccc23)CC1 [Compound 3284CN, 2-(pyrazin-2-ylamino)-3-cyano-4-[4-(tertbutylamino)piperidin-1-yl]quinoline] | 96.3 | 69.4 | 89.8 | 61.9 | 83.4 | 27.4 | 102 | 78.3 | 90 | 68.4 | 95.3 | 79.2 | 88.3 | 64.9 | 
7 | 5 to 10 | 5 to 10 | 5 to 10 | 5 to 10 | 5 to 10 | 5 to 10 | CC(C)(C)NC1CCN(c2c(C#N)c(NCc3ccccc3)nc3ccccc23)CC1 [Compound 3286CN, 2-(benzylamino)-3-cyano-4-[4-(tert-butylamino)piperidin-1-yl]quinoline] | 101 | 54.8 | 73.5 | 2.4 | 7.6 | 0.1 | 90.4 | 60.5 | 85 | 0.4 | 75.4 | 0.4 | 54.5 | 0.2 | EC50 [7]: 0.5 to 5 µM
8 | 5 to 10 | 0.5 to 5 | 0.5 to 5 | 0.5 to 5 | 0.5 to 5 | 0.5 to 5 | Cc1ccc(CNc2nc3ccccc3c(N3CCC(NC(C)(C)C)CC3)c2C#N)cc1 [Compound 3288CN, 2-(4-methylbenzylamino)-3-cyano-4-[4-(tert-butylamino)piperidin-1-yl]quinoline] | 63.5 | 0.6 | 1.9 | 0.3 | 0.5 | 0.2 | 62.8 | 0.4 | 0.6 | 0.3 | 0.6 | 0.3 | 0.5 | 0.3 | EC50 [7]: 0.5 to 5 µM
9 | 5 to 10 | 5 to 10 | 0.5 to 5 | 5 to 10 | 0.5 to 5 | 0.5 to 5 | COc1ccc(CNc2nc3ccccc3c(N3CCC(NC(C)(C)C)CC3)c2C#N)cc1 [Compound 3290CN, 2-(4-methoxybenzylamino)-3-cyano-4-[4-(tert-butylamino)piperidin-1-yl]quinoline] | 95.7 | 38.3 | 74.1 | 2.7 | 43.8 | 0.7 | 76.4 | 7.4 | 75.5 | 0.7 | 80.2 | 1 | 57.6 | 0.8 | EC50 [7]: 0.5 to 5 µM
10 | 5 to 10 | 0.5 to 5 | 0.5 to 5 | 5 to 10 | 0.5 to 5 | 0.5 to 5 | CC(C)(C)NC1CCN(c2c(C#N)c(NCc3ccc(C(F)(F)F)cc3)nc3ccccc23)CC1 [Compound 3292CN, 2-[4-(trifluoromethyl)benzylamino]-3-cyano-4-[4-(tert-butylamino)piperidin-1-yl]quinoline] | 75.6 | 25 | 0.5 | 0.2 | 0.3 | 0.1 | 54.7 | 0.3 | 20.5 | 0.2 | 10.2 | 0.2 | 0.3 | 0.2 | EC50 [7]: 0.5 to 5 µM
11 | 5 to 10 | 5 to 10 | 0.5 to 5 | 5 to 10 | 5 to 10 | 5 to 10 | CC(C)(C)NC1CCN(c2c(C#N)c(NCc3ccc4c(c3)OCO4)nc3ccccc23)CC1 [Compound 3300CN, 2-[(benzo[d][1,3]dioxol-5-ylmethyl)amino]-3-cyano-4-[4-(tert-butylamino)piperidin-1-yl]quinoline] | 78 | 27.4 | 60 | 0.8 | 13.9 | 0.2 | 70.2 | 0.5 | 62.7 | 0.5 | 63.2 | 0.5 | 47.2 | 0.4 | EC50 [7]: 0.5 to 5 µM
